Source: patent publication US20110190324A1, “METHODS OF TREATING ATHEROSCLEROSIS” (priority 2008, published 2011)
Entries after “also recorded” stand apart in the source; their conditions may differ.

Tests used:
Assay type in all cases: cell-based, human
[1] = test system: HIF-1α protein; experiment: HIF-1α protein accumulation, western blot; settings: foam cells; for Antagonism of adenosine induced HIF-1α protein accumulation: hypoxia, adenosine 100 μM, antagonist 100 nM
Method: Hypoxic exposures were done in a modular incubator chamber and flushed with a gas mixture containing 1% O2, 5% CO2 and balance N2 (MiniGalaxy, RSBiotech, Irvine, Scotland).
U937 cells were induced to differentiate into macrophages by treatment with phorbol myristate acetate (PMA, 40 nM) for 72 h. […] All dialyses were carried out with Pierce Slide-A-Lyzer cassettes (10,000 molecular wheight cut-off).
Whole cell lysates were prepared as described previously (27). […] In experiments aimed to detect HIF, western blot analyses were performed using antibody against HIF-1a (1:250 dilution) and HIF-1β (1:1000 dilution) in 5% non-fat dry milk in PBS/0.1% Tween-20 overnight at 4° C. The protein concentration was determined using BCA protein assay kit (Pierce, Rockford, Ill.). Tubulin (1:250) was used to ensure equal protein loading. Immunoreactivity was assessed and quantified by using a VersaDoc Imaging System (Bio-Rad).

[2] = test system: IL-8; experiment: IL-8 secretion by U937 derived foam cells, ELISA
Method: (§1) U937 cells were induced to differentiate into macrophages by treatment with phorbol myristate acetate (PMA, 40 nM) for 72 h. Before use oxLDL was dialyzed against 1 L of 0.15 M sodium chloride and 0.3 mM EDTA (pH 7.4) for 12 h at 4° C., then against RPMI 1640 medium (two changes, 1 L/each change) for 24 h. All dialyses were carried out with Pierce Slide-A-Lyzer cassettes (10,000 molecular wheight cut-off). After dialysis, lipoproteins were sterilized by passing them through a 0.45 μm (pore-size) filter, then added (50-100 μg/mL, Intracel, Frederick, Md.) to PMA-treated U937 cells and incubated in serum-free RPMI 1640 for 48 h.
(§2) The levels of VEGF and IL-8 protein secreted by the cells in the medium were determined by VEGF and IL-8 ELISA kits (R&D Systems) according to the manufacturer's instructions. The data were presented as mean±SD from three independent experiments.

[3] = test system: VEGF; experiment: VEGF secretion by U937 derived foam cells, ELISA; settings: 24 h, hypoxia, adenosine 100 μM, antagonist 100 nM
Method: as §1, §2

[4] = test system: foam cell formation from PMA-treated U937 cells; experiment: Oil red O staining, foam cell formation; settings: oxLDL 50 μg/mL; for Effect on oxLDL and adenosine induced foam cells formation: adenosine 100 μM
Method: as §1
Treatment of PMA-differentiated U937 cells with test agents was performed 2 h before addition of oxLDL. After exposition to oxLDL under hypoxia for 24 h, U937 cells were fixed in phosphate buffered saline-buffered 4% paraformaldehyde solution for 15 min and then air dried. Oil red O (in 60% isopropanol) staining was done for 15 min essentially as described previously by Kalayoglu and Byrne (Infect. Immun., 66: 5067-5072, 1998). Cells were viewed under a bright-field microscope in 100× fields using a Nikon's Eclipse E800 microscope. Foam cells were defined as macrophages in which cytoplasm was filled with Oil red O-stainable lipid droplets.

SMILES	Antagonism of adenosine induced HIF-1α protein accumulation [1]	Reduction of adenosine induced VEGF increase [3]	Effect on oxLDL and adenosine induced foam cells formation ([4]; antagonist 100 nM)	further results
CCNC(=O)[C@H]1O[C@@H](n2cnc3c(Nc4ccc(OCC(=O)Nc5ccccc5)cc4)ncnc32)[C@H](O)[C@@H]1O [1-deoxy-1-[6-{4-[(phenylcarbamoyl)-methoxy]phenylamino}-9H-purin-9-yl]-N-ethyl-β-D-ribofuranuronamide]	–	–	–	Induction of HIF-1α protein by adenosine receptor agonists ([1]; CHA 10, 100 nM, CGS 21680 500, 1000 nM, A2B agonist 10, 100 nM, CI-IB-MECA 10, 100 nM): able to induce HIF-1α protein
CCCn1c(=O)c2[nH]c(-c3cc(OCC(=O)Nc4ccc5c(c4)OCO5)nn3C)nc2n(CCC)c1=O [MRE-2029F20, N-benzo[1,3]dioxol-5-yl-2-[5-(1,3-dipropyl-2,6-dioxo-2,3,6,7-tetrahydro-1H-purin-8-yl)-1-methyl-1H-pyrazol-3-yl-oxy]-acetamide]	partially antagonized	strongly reduced	blocked the foam cells formation; also recorded: inhibition of foam cell formation	Block of the effect of the adenosine A2B receptor agonist (1 μM) on IL-8 secretion [2]: completely blocked; Block of adenosine induced IL-8 increase ([2]; hypoxia, adenosine 100 μM, antagonist 100 nM): blocked
CCCn1cc2c(nc(NC(=O)Nc3ccc(OC)cc3)n3nc(-c4ccco4)nc23)n1 [MRE-3008F20, 5-[[(4-methoxyphenyl)amino]carbonyl]amino-8-propyl-2-(2-furyl)-pyrazolo[4,3-e]-1,2,4-triazolo[1,5-c]pyrimidine]	partially antagonized	strongly reduced	inhibition of foam cell formation; also recorded: blocked the foam cells formation	–
Nc1nc2c(cnn2CCc2ccccc2)c2nc(-c3ccco3)nn12 [SCH 58261]	partially antagonized	inhibited to lesser extent	–	–
COc1ccccc1NC(=O)Nc1nc(-c2cccnc2)nc2ccccc12 [VUF 5574]	–	–	–	Effect on oxLDL and adenosine induced foam cells formation ([4]; antagonist 10 nM): blocked the foam cells formation; also recorded: inhibition of foam cell formation
Nc1ncnc2c1ncn2[C@@H]1O[C@H](CO)[C@@H](O)[C@H]1O [adenosine]	–	–	–	Foam cells (Oil red O) on top of oxLDL ([4]; 24 h, 100 μM): increased
